Test results reported in patent US20110224210A1, “NOVEL BIS-AMIDES AS ANTI-MALARIAL AGENTS” (priority 2008, published 2011).

The compounds below were run on P. falciparum K1 (strain resistant to chloroquine and pyrimethamine), erythrocytic stages (assay: Plasmodium falciparum in vitro assay, [3H] hypoxanthine incorporation). Conditions: Plasmodium falciparum, K1, P. falciparum strain K1; [3H] hypoxanthine incorporation; read-out: IC50 (nM) on K1.
Assay type: cell-based
Method in brief: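 K1 strain parasites grown in human red cells, 2.5% haematocrit, 0.3% parasitaemia, 37 °C, 4% CO2/3% O2; compounds in seven serial doubling dilutions.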

IC50 [nM]	SMILES
20	COCCN(C)C(=O)[C@H](Cc1ccccc1)N(Cc1ccc(-c2ccncc2)cc1)C(=O)C=Cc1c(C)noc1C [Example 96, (S)-3-(3,5-Dimethyl-isoxazol-4-yl)-N-{1-[(2-methoxy-ethyl)-methyl-carbamoyl]-2-phenyl-ethyl}-N-(4-pyridin-4-yl-benzyl)-acrylamide]
15	COCCN(C)C(=O)[C@H](Cc1ccccc1)N(Cc1ccc(-c2ccncc2)cc1)C(=O)C=Cc1nc(C)oc1C [Example 97, (S)-3-(2,5-Dimethyl-oxazol-4-yl)-N-{1-[(2-methoxy-ethyl)-methyl-carbamoyl]-2-phenyl-ethyl}-N-(4-pyridin-4-yl-benzyl)-acrylamide]
98	COCCN(C)C(=O)[C@H](Cc1ccccc1)N(Cc1ccc(-c2ccncc2)cc1)C(=O)C=Cc1csnn1 [Example 98, (S)-N-{1-[(2-Methoxy-ethyl)-methyl-carbamoyl]-2-phenyl-ethyl}-N-(4-pyridin-4-yl-benzyl)-3-[1,2,3]thiadiazol-4-yl-acrylamide]
17	COCCN(C)C(=O)[C@H](Cc1ccccc1)N(Cc1ccc(-c2ccncc2)cc1)C(=O)C=Cc1ccc(Cl)nc1 [Example 99, (S)-3-(6-Chloro-pyridin-3-yl)-N-{1-[(2-methoxy-ethyl)-methyl-carbamoyl]-2-phenyl-ethyl}-N-(4-pyridin-4-yl-benzyl)-acrylamide]
12	COCCN(C)C(=O)[C@H](Cc1ccccc1)N(Cc1ccc(-c2ccncc2)cc1)C(=O)C=Cc1ccc(C)cn1 [Example 100, (S)-N-{1-[(2-Methoxy-ethyl)-methyl-carbamoyl]-2-phenyl-ethyl}-3-(5-methyl-pyridin-2-yl)-N-(4-pyridin-4-yl-benzyl)-acrylamide]
8	COCCN(C)C(=O)[C@H](Cc1ccccc1)N(Cc1ccc(-c2ccncc2)cc1)C(=O)C=Cc1ccc(OC)nc1 [Example 101, (S)-N-{1-[(2-Methoxy-ethyl)-methyl-carbamoyl]-2-phenyl-ethyl}-3-(6-methoxy-pyridin-3-yl)-N-(4-pyridin-4-yl-benzyl)-acrylamide]
6	COCCN(C)C(=O)[C@H](Cc1ccccc1)N(Cc1ccc(-c2ccncc2)cc1)C(=O)C=Cc1ccc(C(F)(F)F)cn1 [Example 102, (S)-N-{1-[(2-Methoxy-ethyl)-methyl-carbamoyl]-2-phenyl-ethyl}-N-(4-pyridin-4-yl-benzyl)-3-(5-trifluoromethyl-pyridin-2-yl)-acrylamide]
438	COCCN(C)C(=O)[C@H](Cc1ccccc1)N(Cc1ccc(N2CCN(C(C)=O)CC2)cc1)C(=O)C=Cc1ccn(C)n1 [Example 103, (S)-N-[4-(4-Acetyl-piperazin-1-yl)-benzyl]-N-{1-[(2-methoxy-ethyl)-methyl-carbamoyl]-2-phenyl-ethyl}-3-(1-methyl-1H-pyrazol-3-yl)-acrylamide]
45	COCCN(C)C(=O)[C@H](Cc1ccccc1)N(Cc1ccc(N2CCN(C(C)=O)CC2)cc1)C(=O)C=Cc1cc(C)nn1C [Example 104, (S)-N-[4-(4-Acetyl-piperazin-1-yl)-benzyl]-3-(2,5-dimethyl-2H-pyrazol-3-yl)-N-{1-[(2-methoxy-ethyl)-methyl-carbamoyl]-2-phenyl-ethyl}-acrylamide]
44	COCCN(C)C(=O)[C@H](Cc1ccccc1)N(Cc1ccc(N2CCN(C(C)=O)CC2)cc1)C(=O)C=Cc1c(C)nn(C)c1C [Example 105, (S)-N-[4-(4-Acetyl-piperazin-1-yl)-benzyl]-N-{1-[(2-methoxy-ethyl)-methyl-carbamoyl]-2-phenyl-ethyl}-3-(1,3,5-trimethyl-1H-pyrazol-4-yl)-acrylamide]
470	COCCN(C)C(=O)[C@H](Cc1ccccc1)N(Cc1ccc(N2CCN(C(C)=O)CC2)cc1)C(=O)C=Cc1cnc(C)n1C [Example 106, (S)-N-[4-(4-Acetyl-piperazin-1-yl)-benzyl]-3-(2,3-dimethyl-3H-imidazol-4-yl)-N-{1-[(2-methoxy-ethyl)-methyl-carbamoyl]-2-phenyl-ethyl}-acrylamide]

Continued, compound first:

SMILES	IC50 [nM]
COCCN(C)C(=O)[C@H](Cc1ccccc1)N(Cc1ccc(-c2ccccn2)cc1)C(=O)C=Cc1ccc(OC)nc1 [Example 87, (S)-N-{1-[(2-Methoxy-ethyl)-methyl-carbamoyl]-2-phenyl-ethyl}-3-(6-methoxy-pyridin-3-yl)-N-(4-pyridin-2-yl-benzyl)-acrylamide]	< 8
COCCN(C)C(=O)[C@H](Cc1ccccc1)N(Cc1ccc(-c2ccccn2)cc1)C(=O)C=Cc1cnc(C(F)(F)F)nc1 [Example 88, (S)-N-{1-[(2-Methoxy-ethyl)-methyl-carbamoyl]-2-phenyl-ethyl}-N-(4-pyridin-2-yl-benzyl)-3-(2-trifluoromethyl-pyrimidin-5-yl)-acrylamide]	45
COCCN(C)C(=O)[C@H](Cc1ccccc1)N(Cc1ccc(-c2ccccn2)cc1)C(=O)C=Cc1ccc(C(F)(F)F)cn1 [Example 89, (S)-N-{1-[(2-Methoxy-ethyl)-methyl-carbamoyl]-2-phenyl-ethyl}-N-(4-pyridin-2-yl-benzyl)-3-(5-trifluoromethyl-pyridin-2-yl)-acrylamide]	< 8
COCCN(C)C(=O)[C@H](Cc1ccccc1)N(Cc1ccc(-c2ccccn2)cc1)C(=O)C=Cc1cnn(C)c1C [Example 90, (S)-3-(1,5-Dimethyl-1H-pyrazol-4-yl)-N-{1-[(2-methoxy-ethyl)-methyl-carbamoyl]-2-phenyl-ethyl}-N-(4-pyridin-2-yl-benzyl)-acrylamide]	43
COCCN(C)C(=O)[C@H](Cc1ccccc1)N(Cc1ccc(-c2ccncc2)cc1)C(=O)C=Cc1ccn(C)n1 [Example 91, (S)-N-{1-[(2-Methoxy-ethyl)-methyl-carbamoyl]-2-phenyl-ethyl}-3-(1-methyl-1H-pyrazol-3-yl)-N-(4-pyridin-4-yl-benzyl)-acrylamide]	26
COCCN(C)C(=O)[C@H](Cc1ccccc1)N(Cc1ccc(-c2ccncc2)cc1)C(=O)C=Cc1cnc(C)n1C [Example 92, (S)-3-(2,3-Dimethyl-3H-imidazol-4-yl)-N-{1-[(2-methoxy-ethyl)-methyl-carbamoyl]-2-phenyl-ethyl}-N-(4-pyridin-4-yl-benzyl)-acrylamide]	23
COCCN(C)C(=O)[C@H](Cc1ccccc1)N(Cc1ccc(-c2ccncc2)cc1)C(=O)C=Cc1sc(C)nc1C [Example 93, (S)-3-(2,4-Dimethyl-thiazol-5-yl)-N-{1-[(2-methoxy-ethyl)-methyl-carbamoyl]-2-phenyl-ethyl}-N-(4-pyridin-4-yl-benzyl)-acrylamide]	13
COCCN(C)C(=O)[C@H](Cc1ccccc1)N(Cc1ccc(-c2ccncc2)cc1)C(=O)C=Cc1csc(C)n1 [Example 94, (S)-N-{1-[(2-Methoxy-ethyl)-methyl-carbamoyl]-2-phenyl-ethyl}-3-(2-methyl-thiazol-4-yl)-N-(4-pyridin-4-yl-benzyl)-acrylamide]	15
COCCN(C)C(=O)[C@H](Cc1ccccc1)N(Cc1ccc(-c2ccncc2)cc1)C(=O)C=Cc1cc(C)on1 [Example 95, (S)-N-{1-[(2-Methoxy-ethyl)-methyl-carbamoyl]-2-phenyl-ethyl}-3-(5-methyl-isoxazol-3-yl)-N-(4-pyridin-4-yl-benzyl)-acrylamide]	33
